The target in test [1] is GST-MCL-1 (Homo sapiens, UniProt Q07820). The test can be described thus: TR-FRET MCL-1 binding assay (competition with probe F-Bak). The procedure, abridged: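 Test compounds, 11 three-fold dilutions from 25 μM final, incubated 2 hours at room temperature with GST-MCL-1, F-Bak probe and Tb-anti-GST antibody. TR-FRET read at 340/35 nm excitation with 520/525 and 495/510 nm emission. Run without human serum and with 10% HS.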
A general note: TR-FRET usually uses a lanthanide donor and a delayed reading to cut background.

In test [2] the test system is AMO-1 human multiple myeloma tumor cell line. The test can be described thus: AMO-1 cell viability assay (CellTiter-Glo, 24 hours). In kind it is cell-based.
Protocol: Each concentration was tested in duplicate at least 3 independent times. A luminescent signal proportional to the number of viable cells following 24 hours of compound treatment was determined using the CellTiter-Glo® Luminescent Cell Viability Assay according to the manufacturer's recommendations (Promega Corp., Madison, WI). The plates were read in a Perkin Elmer Envision using a Luminescence protocol. To generate dose response curves the data is normalized to percent viability by setting the averages of the staurosporine (10 μM) and DMSO only control wells to 0% and 100% viability respectively.
For test [3], the system named is NCI-H929 human multiple myeloma tumor cell line. Nature of the test: NCI-H929 cell viability assay (CellTiter-Glo, 24 hours). In kind it is cell-based. (In ATP-based viability assays light output follows the ATP content of the culture.)
Where [4] appears, read: MCL-1 Binding Ki (nM, 10% HS), in the presence of 10% HS (human serum).
Setting [5] is: without HS, read-out: MCL-1 Binding Ki.
Setting [6] is: read-out: AMO-1 Viability IC50 (μM, 10% FBS), 10% FBS, 24 hours of compound treatment.
Where [7] appears, read: read-out: H929 Viability IC50 (μM, 10% FBS), 10% FBS, 24 hours of compound treatment.
Setting [8] is: Homo sapiens, AMO1, 24 h, read-out: AMO-1 Viability IC50 (μM, 10% FBS), 10% FBS, 24 hours of compound treatment.
The mark [9] stands for this setting: Homo sapiens, NCI-H929, 24 h, read-out: H929 Viability IC50 (μM, 10% FBS), 10% FBS, 24 hours of compound treatment.

Like-named read-outs stand apart in the source and are kept apart here.

Chain of GST-MCL-1 (Q07820 whole entry): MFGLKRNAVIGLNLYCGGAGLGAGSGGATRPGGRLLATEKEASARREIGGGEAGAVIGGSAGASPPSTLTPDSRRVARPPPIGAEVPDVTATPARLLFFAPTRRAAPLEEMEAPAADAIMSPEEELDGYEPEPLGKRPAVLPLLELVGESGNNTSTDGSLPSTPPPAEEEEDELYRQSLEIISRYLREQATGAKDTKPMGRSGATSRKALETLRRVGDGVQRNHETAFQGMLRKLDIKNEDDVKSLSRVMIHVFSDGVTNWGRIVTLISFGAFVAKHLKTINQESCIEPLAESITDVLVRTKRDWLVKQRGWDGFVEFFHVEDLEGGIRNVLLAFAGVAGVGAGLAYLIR

In the case of `COCCOCCOCCOCCOCC1(F)CC=C(c2nccc(COc3ccc4cc3C[C@H](C(=O)O)Oc3ncnc5sc(-c6ccc(F)cc6)c(c35)-c3c(C)c(Cl)c(c(Cl)c3C)O[C@H](CN3CCN(C)CC3)CO4)n2)CC1` (single isomer, unassigned) [Example 114, (7R,16R)-19,23-dichloro-10-({2-[(4S*)-4-fluoro-4-(2,5,8,11,14-pentaoxapentadecan-1-yl)cyclohex-1-en-1-yl]pyrimidin-4-yl}methoxy)-1-(4-fluorophenyl)-20,22-dimethyl-16-[(4-methylpiperazin-1-yl)methyl]-7,8,15,16-tetrahydro-18,21-etheno-13,9-(metheno)-6,14,17-trioxa-2-thia-3,5-diazacyclononadeca[1,2,3-cd]indene-7-carboxylic Acid], the inhibitory constant (Ki) – broadly, the equilibrium dissociation constant of an inhibitor or competing ligand from its target – in test [1] (setting [4]) is 0.15 nM; in test [1] (setting [5]) it was 0.018 nM. The IC50 (usually the concentration needed to halve the response being measured) in test [2] (setting [6]) is 0.000197 µM; in test [3] (setting [7]), 0.000331 µM.

Consider `COCCOCCOCCOCC1(C)CC=C(c2nccc(COc3ccc4cc3C[C@H](C(=O)O)Oc3ncnc5sc(-c6ccc(F)cc6)c(c35)-c3c(C)c(Cl)c(c(Cl)c3C)O[C@H](CN3CCN(C)CC3)CO4)n2)CC1` (single isomer, unassigned) [Example 119, (7R,16R)-19,23-dichloro-1-(4-fluorophenyl)-20,22-dimethyl-16-[(4-methylpiperazin-1-yl)methyl]-10-({2-[(4S*)-4-methyl-4-(2,5,8,11-tetraoxadodecan-1-yl)cyclohex-1-en-1-yl]pyrimidin-4-yl}methoxy)-7,8,15,16-tetrahydro-18,21-etheno-13,9-(metheno)-6,14,17-trioxa-2-thia-3,5-diazacyclononadeca[1,2,3-cd]indene-7-carboxylic Acid], for which the figures for the Ki in test [1] (setting [4]) and in test [1] (setting [5]) were 0.16 nM and 0.004 nM, respectively. For the same molecule, the IC50 came out at 0.000181 µM in test [2] (setting [6]) and 0.000333 µM in test [3] (setting [7]).

For `COCCOCCOCCOCC1(F)CC=C(c2nccc(COc3ccc4cc3C[C@H](C(=O)O)Oc3ncnc5sc(C6=CCCC6)c(c35)-c3c(C)c(Cl)c(c(Cl)c3C)O[C@H](CN3CCN(C)CC3)CO4)n2)CC1` (single isomer, unassigned) [Example 125, (7R,16R)-19,23-dichloro-1-(cyclopent-1-en-1-yl)-10-({2-[(4S*)-4-fluoro-4-(2,5,8,11-tetraoxadodecan-1-yl)cyclohex-1-en-1-yl]pyrimidin-4-yl}methoxy)-20,22-dimethyl-16-[(4-methylpiperazin-1-yl)methyl]-7,8,15,16-tetrahydro-18,21-etheno-13,9-(metheno)-6,14,17-trioxa-2-thia-3,5-diazacyclononadeca[1,2,3-cd]indene-7-carboxylic Acid], the Ki came to 0.455 nM in test [1] (setting [4]) and 0.037 nM in test [1] (setting [5]). The half-maximal inhibitory concentration (IC50) came to 0.000288 µM in test [2] (setting [8]) and 0.00111 µM in test [3] (setting [9]).

As to `COCCOCCOCC1(F)CC=C(c2nccc(COc3ccc4cc3C[C@H](C(=O)O)Oc3ncnc5sc(C6CCC6)c(c35)-c3c(C)c(Cl)c(c(Cl)c3C)O[C@H](CN3CCN(C)CC3)CO4)n2)CC1` (single isomer, unassigned) [Example 130, (7R,16R)-19,23-dichloro-1-cyclobutyl-10-({2-[(4R*)-4-fluoro-4-{[2-(2-methoxyethoxy)ethoxy]methyl}cyclohex-1-en-1-yl]pyrimidin-4-yl}methoxy)-20,22-dimethyl-16-[(4-methylpiperazin-1-yl)methyl]-7,8,15,16-tetrahydro-18,21-etheno-13,9-(metheno)-6,14,17-trioxa-2-thia-3,5-diazacyclononadeca[1,2,3-cd]indene-7-carboxylic Acid], the Ki came out at 1.74 nM in test [1] (setting [4]) and 0.026 nM in test [1] (setting [5]). Further, the IC50 in test [2] (setting [8]) was 0.000309 µM; in test [3] (setting [9]), 0.000489 µM.
